Converted amounts (≈) assume the structure as drawn.
Columns and labels:
Format in all cases: cell-based
BXPC-3 (pancreas) = assay: Sulforhodamine B human cancer cell growth inhibition, BXPC-3; details: BXPC-3 pancreas cell line, compounds in DMSO, 48 h; for IC50: Homo sapiens, read-out: Gl50 Growth Inhibition, XPC-3
Experimental: (§1) Cancer Cell Line Procedures. Inhibition of human cancer cell growth was assessed using the standard sulforhodamine B assay of the U.S. National Cancer Institute, as previously described.^15 To begin, cells in a 5% fetal bovine serum/RPMI1640 medium were inoculated in 96-well plates and incubated for 24 h. Next, serial dilutions of the compounds were added. After 48 h, the plates were fixed with trichloroacetic acid, stained with sulforhodamine B, and read with an automated microplate reader.

MCF-7 (breast) = assay: Sulforhodamine B human cancer cell growth inhibition, MCF-7; details: compounds in DMSO, 48 h; for Gl50 Growth Inhibition, MCF-7: MCF-7 breast cell line; for IC50: Homo sapiens, MCF7, MCF-7 breast cell line, read-out: Gl50 Growth Inhibition, MCF-7
Experimental: as §1

SF-268 (CNS) = assay: Sulforhodamine B human cancer cell growth inhibition, SF-268; details: SF-268 CNS cell line, compounds in DMSO, 48 h; for IC50: Homo sapiens, read-out: Gl50 Growth Inhibition, SF-268
Experimental: as §1

NCI-H460 (lung) = assay: Sulforhodamine B human cancer cell growth inhibition, NCI-H460; details: NCI-H460 lung cell line, compounds in DMSO, 48 h; for IC50: Homo sapiens, read-out: Gl50 Growth Inhibition, NCI-H460
Experimental: as §1

KM20L2 (colon) = assay: Sulforhodamine B human cancer cell growth inhibition, KM20L2; details: compounds in DMSO, 48 h; for Gl50 Growth Inhibition, KM20L2: KM20L2 colon cell line; for IC50: Homo sapiens, KM-20L2, KM20L2 colon cell line, read-out: Gl50 Growth Inhibition, KM20L2
Experimental: as §1

DU-145 (prostate) = assay: Sulforhodamine B human cancer cell growth inhibition, DU-145; details: DU-145 prostate cell line, compounds in DMSO, 48 h; for IC50: Homo sapiens, read-out: Gl50 Growth Inhibition, DU-145
Experimental: as §1

Compound	Gl50 Growth Inhibition, XPC-3 (BXPC-3 (pancreas)) [µg/mL]	Gl50 Growth Inhibition, MCF-7 (MCF-7 (breast)) [µg/mL]	Gl50 Growth Inhibition, SF-268 (SF-268 (CNS)) [µg/mL]	Gl50 Growth Inhibition, NCI-H460 (NCI-H460 (lung)) [µg/mL]	Gl50 Growth Inhibition, KM20L2 (KM20L2 (colon)) [µg/mL]	Gl50 Growth Inhibition, DU-145 (DU-145 (prostate)) [µg/mL]	IC50 (BXPC-3 (pancreas)) [µg/mL]	IC50 (MCF-7 (breast)) [µg/mL]	IC50 (SF-268 (CNS)) [µg/mL]	IC50 (NCI-H460 (lung)) [µg/mL]	IC50 (KM20L2 (colon)) [µg/mL]	IC50 (DU-145 (prostate)) [µg/mL]
3-O-Acetyl-28-amido-allobetulin-28-N-1′-ethyldiamine-N-2′-Dap-Dil-Val-Dov [Compound 18a]	3.8	3.6	1.3	5.1	3.1	0.39	–	–	–	–	–	–
C=C(C)[C@@H]1CC[C@]2(COC(C)=O)CC[C@]3(C)[C@H](CC[C@@H]4[C@@]5(C)CCC(N)C(C)(C)[C@@H]5CC[C@]43C)[C@@H]12 (single isomer, unassigned) [Compound 9a, 3-α/β-Amino-28-O-acetyl-betulin]	>10	2.1	1.2	6.0	3.0	1.3	–	–	–	–	–	–
C=C(C)[C@@H]1CC[C@]2(CO)CC[C@]3(C)[C@H](CC[C@@H]4[C@@]5(C)CC[C@H](O)C(C)(C)[C@@H]5CC[C@]43C)[C@@H]12 [Betulin, betulin, reference compound]	–	–	–	–	–	–	9.3 (≈ 21 µM)	> 10	> 10	7.4 (≈ 16.7 µM)	> 10	> 10
C=C(C)[C@@H]1CC[C@]2(C=O)CC[C@]3(C)[C@H](CC[C@@H]4[C@@]5(C)CC[C@H](OC(C)=O)C(C)(C)[C@@H]5CC[C@]43C)[C@@H]12 [Compound 1, 3-O-Acetyl-28-betulinal]	>10	>10	>10	>10	>10	>10	–	–	–	–	–	–
C=C(C)[C@@H]1CC[C@]2(/C=N/O)CC[C@]3(C)[C@H](CC[C@@H]4[C@@]5(C)CC[C@H](OC(C)=O)C(C)(C)[C@@H]5CC[C@]43C)[C@@H]12 [Compound 2, 3-O-Acetyl-28-oxime-betulin]	15.5	4.5	13.2	4.1	5.1	>10	–	–	–	–	–	–
C=C(C)[C@@H]1CC[C@]2(CN)CC[C@]3(C)C(CCC4[C@@]5(C)CC[C@H](OC(C)=O)C(C)(C)C5CC[C@]43C)C12 (stereo partly drawn) [Compound 3, 3-O-Acetyl-28-aminobetulin]	–	–	–	–	–	–	1.9 (≈ 3.93 µM)	1.8 (≈ 3.72 µM)	1.8 (≈ 3.72 µM)	1.9 (≈ 3.93 µM)	1.9 (≈ 3.93 µM)	1.8 (≈ 3.72 µM)
C=C(C)[C@@H]1CC[C@]2(CNC(=O)[C@H](C)[C@@H](OC)C3CCCN3C(=O)OC(C)(C)C)CC[C@]3(C)C(CCC4[C@@]5(C)CC[C@H](OC(C)=O)C(C)(C)C5CC[C@]43C)C12 (stereo partly drawn) [Compound 5, 3-O-Acetyl-28-amino-N-(Boc-dap)-betulin]	–	–	–	–	–	–	> 10	> 10	> 10	> 10	> 10	> 10
C=C(C)[C@@H]1CC[C@]2(CNC(=O)[C@H](C)[C@@H](OC)[C@@H]3CCCN3C(=O)C[C@@H](OC)[C@H]([C@@H](C)CC)N(C)C(=O)[C@@H](NC(=O)[C@H](C(C)C)N(C)C)C(C)C)CC[C@]3(C)[C@H](CC[C@@H]4[C@@]5(C)CC[C@H](OC(C)=O)C(C)(C)[C@@H]5CC[C@]43C)[C@@H]12 [Compound 7a, 3-O-Acetyl-28-amino-N-(Dap-Dil-Val-Dov)-betulin]	4.1	3.6	2.6	4.2	2.4	3.7	–	–	–	–	–	–
